Relative viability data for six cell lines are collected here from the supplement of paper PMC10307832.

Common to all, as to assay: relative viability (nuclei count vs DMSO), 5 days (fraction); higher = more cells survive
Compound in the experiment “Nelarabine + Crizotinib”: COc1nc(N)nc2c1ncn2[C@@H]1O[C@H](CO)[C@@H](O)[C@@H]1O [Nelarabine] + C[C@@H](Oc1cc(-c2cnn(C3CCNCC3)c2)cnc1N)c1c(Cl)ccc(F)c1Cl [Crizotinib] (partner 1 µM)
Summed up: (§1)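 After 5 days of treatment, lung cancer cells in 1536-well plates were fixed and stained in a single step (final 0.05% Triton X-100, 1% formaldehyde, 1 ug/ml Hoechst) and their nuclei counted on 4× images. Treatment had been applied by pin tool the day after seeding as one drug alone or as a fixed anchor-drug dose with five library-drug doses (not always all listed) in √10 steps. Relative viability is the nuclei count of treated wells divided by that of vehicle wells, and values are medians of duplicate plates.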

Compound in the experiment “Adavosertib + Olaparib”: C=CCn1c(=O)c2cnc(Nc3ccc(N4CCN(C)CC4)cc3)nc2n1-c1cccc(C(C)(C)O)n1 [Adavosertib] + O=C(c1cc(Cc2n[nH]c(=O)c3ccccc23)ccc1F)N1CCN(C(=O)C2CC2)CC1 [Olaparib] (partner 8 µM)
Summed up: as §1

Compound in the experiment “Nelarabine + OSI-027”: COc1nc(N)nc2c1ncn2[C@@H]1O[C@H](CO)[C@@H](O)[C@@H]1O [Nelarabine] + COc1cccc2cc(-c3nc([C@H]4CC[C@H](C(=O)O)CC4)n4ncnc(N)c34)[nH]c12 [OSI-027] (partner 0.5 µM)
The procedure, abridged: as §1

Compound in the experiment “Nelarabine + Trametinib”: COc1nc(N)nc2c1ncn2[C@@H]1O[C@H](CO)[C@@H](O)[C@@H]1O [Nelarabine] + CC(=O)Nc1cccc(-n2c(=O)n(C3CC3)c(=O)c3c(Nc4ccc(I)cc4F)n(C)c(=O)c(C)c32)c1 [Trametinib] (partner 0.02 µM)
The procedure, abridged: as §1

With NCI-H3122, the relative viability in the experiment with Nelarabine + Crizotinib (first compound 0.01 µM) worked out at 0.265; with Nelarabine + Crizotinib (first compound 0.03162 µM), 0.197; in the experiment with Nelarabine + Crizotinib (first compound 0.3162 µM), 0.301; with Nelarabine + Crizotinib (first compound 1 µM), 0.268; with Adavosertib + Olaparib (first compound 0.01 µM), 0.662; with Adavosertib + Olaparib (first compound 0.03162 µM), 0.611. Further, the relative viability with Adavosertib + Olaparib (first compound 0.1 µM) came out at 0.549; in the experiment with Adavosertib + Olaparib (first compound 0.3162 µM), 0.575; with Nelarabine + OSI-027 (first compound 0.01 µM) it was 1.34; with Nelarabine + OSI-027 (first compound 0.03162 µM), 1.01; with Nelarabine + OSI-027 (first compound 0.3162 µM), 1.11; with Nelarabine + OSI-027 (first compound 1 µM), 1.03. Further, the relative viability with Nelarabine + Trametinib (first compound 0.01 µM) came to 0.307; in the experiment with Nelarabine + Trametinib (first compound 0.03162 µM), 0.163; with Nelarabine + Trametinib (first compound 0.3162 µM) it was 0.23; with Nelarabine + Trametinib (first compound 1 µM) it was 0.237.

Take NCI-H358: the relative viability with Nelarabine + Crizotinib (first compound 0.01 µM) is 0.58; with Nelarabine + Crizotinib (first compound 0.03162 µM) it was 0.481; in the experiment with Nelarabine + Crizotinib (first compound 0.1 µM), 0.4; with Nelarabine + Crizotinib (first compound 0.3162 µM) it was 0.573; in the experiment with Nelarabine + Crizotinib (first compound 1 µM), 0.514; in the experiment with Adavosertib + Olaparib (first compound 0.01 µM) it was 0.563. Also, the relative viability in the experiment with Adavosertib + Olaparib (first compound 0.03162 µM) turned out to be 0.517; in the experiment with Adavosertib + Olaparib (first compound 0.1 µM), 0.416; in the experiment with Adavosertib + Olaparib (first compound 0.3162 µM) it was 0.329; with Nelarabine + OSI-027 (first compound 0.01 µM) it was 1; in the experiment with Nelarabine + OSI-027 (first compound 0.03162 µM) it was 0.816; in the experiment with Nelarabine + OSI-027 (first compound 0.1 µM), 0.767. Also, the relative viability in the experiment with Nelarabine + OSI-027 (first compound 0.3162 µM) was found to be 1.09; in the experiment with Nelarabine + OSI-027 (first compound 1 µM) it was 0.989; in the experiment with Nelarabine + Trametinib (first compound 0.01 µM), 0.124; in the experiment with Nelarabine + Trametinib (first compound 0.03162 µM) it was 0.14; with Nelarabine + Trametinib (first compound 0.1 µM) it was 0.109; with Nelarabine + Trametinib (first compound 0.3162 µM), 0.149. For the same cell line, the relative viability with Nelarabine + Trametinib (first compound 1 µM) was 0.123.

For the cell line HOP-62, the relative viability with Nelarabine + Crizotinib (first compound 0.01 µM) was 1.08; with Nelarabine + Crizotinib (first compound 0.03162 µM) it was 0.933; with Nelarabine + Crizotinib (first compound 0.1 µM) it was 0.998; in the experiment with Nelarabine + Crizotinib (first compound 0.3162 µM), 0.91; with Nelarabine + Crizotinib (first compound 1 µM), 0.831; with Adavosertib + Olaparib (first compound 0.01 µM), 0.429. For the same cell line, the relative viability with Adavosertib + Olaparib (first compound 0.03162 µM) amounted to 0.3; with Adavosertib + Olaparib (first compound 0.1 µM) it was 0.663; with Adavosertib + Olaparib (first compound 0.3162 µM) it was 0.254; with Nelarabine + OSI-027 (first compound 0.01 µM), 0.981; with Nelarabine + OSI-027 (first compound 0.03162 µM) it was 0.866; with Nelarabine + OSI-027 (first compound 0.1 µM) it was 0.971. The relative viability was found to be 0.941 with Nelarabine + OSI-027 (first compound 0.3162 µM); 0.838 with Nelarabine + OSI-027 (first compound 1 µM); 0.47 with Nelarabine + Trametinib (first compound 0.01 µM); 0.516 with Nelarabine + Trametinib (first compound 0.03162 µM); 0.369 with Nelarabine + Trametinib (first compound 0.1 µM); 0.36 with Nelarabine + Trametinib (first compound 0.3162 µM). For the same cell line, the relative viability with Nelarabine + Trametinib (first compound 1 µM) was 0.408.

For NCI-H1944, the relative viability with Nelarabine + Crizotinib (first compound 0.01 µM) was 1.12; with Nelarabine + Crizotinib (first compound 0.03162 µM), 1.06; in the experiment with Nelarabine + Crizotinib (first compound 0.1 µM), 1.16; with Nelarabine + Crizotinib (first compound 0.3162 µM), 1.08; with Nelarabine + Crizotinib (first compound 1 µM), 1.02; with Adavosertib + Olaparib (first compound 0.01 µM), 0.41. Also, the relative viability with Adavosertib + Olaparib (first compound 0.03162 µM) stood at 0.384; with Adavosertib + Olaparib (first compound 0.1 µM) it was 0.393; with Adavosertib + Olaparib (first compound 0.3162 µM) it was 0.403; in the experiment with Nelarabine + OSI-027 (first compound 0.01 µM), 0.468; in the experiment with Nelarabine + OSI-027 (first compound 0.03162 µM) it was 0.436; with Nelarabine + OSI-027 (first compound 0.1 µM) it was 0.442. Also, the relative viability in the experiment with Nelarabine + OSI-027 (first compound 0.3162 µM) came out at 0.426; with Nelarabine + OSI-027 (first compound 1 µM), 0.455; with Nelarabine + Trametinib (first compound 0.01 µM) it was 0.448; with Nelarabine + Trametinib (first compound 0.03162 µM), 0.443; in the experiment with Nelarabine + Trametinib (first compound 0.1 µM) it was 0.401; in the experiment with Nelarabine + Trametinib (first compound 0.3162 µM), 0.388. Further, in the experiment with Nelarabine + Trametinib (first compound 1 µM), the relative viability was determined as 0.376.

Consider NCI-H838, for which the relative viability was determined as 0.975 with Nelarabine + Crizotinib (first compound 0.01 µM); 0.575 in the experiment with Nelarabine + Crizotinib (first compound 0.03162 µM); 0.766 with Nelarabine + Crizotinib (first compound 0.1 µM); 1.02 with Nelarabine + Crizotinib (first compound 0.3162 µM); 0.792 in the experiment with Nelarabine + Crizotinib (first compound 1 µM); 0.784 with Adavosertib + Olaparib (first compound 0.01 µM). Besides, the relative viability with Adavosertib + Olaparib (first compound 0.03162 µM) is 0.805; in the experiment with Adavosertib + Olaparib (first compound 0.1 µM), 0.804; with Adavosertib + Olaparib (first compound 0.3162 µM), 0.613; with Nelarabine + OSI-027 (first compound 0.01 µM) it was 0.463; with Nelarabine + OSI-027 (first compound 0.03162 µM), 0.377; with Nelarabine + OSI-027 (first compound 0.1 µM), 0.324. Also, the relative viability in the experiment with Nelarabine + OSI-027 (first compound 0.3162 µM) stood at 0.426; in the experiment with Nelarabine + OSI-027 (first compound 1 µM) it was 0.45; in the experiment with Nelarabine + Trametinib (first compound 0.01 µM), 0.572; with Nelarabine + Trametinib (first compound 0.03162 µM) it was 0.586; in the experiment with Nelarabine + Trametinib (first compound 0.1 µM), 0.473; in the experiment with Nelarabine + Trametinib (first compound 0.3162 µM) it was 0.621. Also, the relative viability with Nelarabine + Trametinib (first compound 1 µM) was determined as 0.575.

For ChaGo-K-1, the relative viability with Nelarabine + Crizotinib (first compound 0.01 µM) came to 1.11; with Nelarabine + Crizotinib (first compound 0.03162 µM) it was 1.01; with Nelarabine + Crizotinib (first compound 0.1 µM), 1.32; in the experiment with Nelarabine + Crizotinib (first compound 0.3162 µM), 1.23; with Nelarabine + Crizotinib (first compound 1 µM), 1.17; in the experiment with Adavosertib + Olaparib (first compound 0.01 µM), 0.434. Besides, the relative viability turned out to be 0.39 in the experiment with Adavosertib + Olaparib (first compound 0.03162 µM); 0.405 in the experiment with Adavosertib + Olaparib (first compound 0.1 µM); 0.32 in the experiment with Adavosertib + Olaparib (first compound 0.3162 µM); 0.676 in the experiment with Nelarabine + OSI-027 (first compound 0.01 µM); 0.444 with Nelarabine + OSI-027 (first compound 0.03162 µM); 0.663 with Nelarabine + OSI-027 (first compound 0.1 µM). The relative viability in the experiment with Nelarabine + OSI-027 (first compound 0.3162 µM) worked out at 0.758; with Nelarabine + OSI-027 (first compound 1 µM) it was 0.589; with Nelarabine + Trametinib (first compound 0.01 µM) it was 1; with Nelarabine + Trametinib (first compound 0.03162 µM), 0.748; with Nelarabine + Trametinib (first compound 0.1 µM), 0.935; with Nelarabine + Trametinib (first compound 0.3162 µM), 0.845. Besides, in the experiment with Nelarabine + Trametinib (first compound 1 µM), the relative viability was found to be 0.899.
